This note sets out measurements from PubChem BioAssay (NCI).

“And” between values parts separate entries of the source, which are not always exact repeats. Equal values may be shown once.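 All cell lines were grown in 96-well plates and treated with compound for 48 hours. GI50: concentration for 50% inhibition of growth. TGI is the concentration that stops growth completely.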 Bounds are passed on as bounds.

Holding throughout (experiment): NCI anticancer screen, dose series, 48 h
Experiment [1] concerns BT-549 breast.
Experiment [2] deals with K-562 leukemia.
In experiment [3] the test system is OVCAR-3 ovarian.
Experiment [4] has as its system UACC-62 melanoma.
Experiment [5] relates to SF-539 CNS.
In experiment [6] the test system is HOP-62 NSCLC.
Experiment [7] has as its system HL-60(TB) leukemia.
The test system of experiment [8] is OVCAR-5 ovarian.
Experiment [9] relates to A549 NSCLC.
Experiment [10] concerns HOP-92 NSCLC.

For `COc1c(-c2cccs2)oc2c(CC(=O)O)cccc2c1=O`, the TGI in experiment [1], in experiment [2], in experiment [3], in [4], in [5] and in [6] was > 100 µM in each case. Moreover, the TGI in [7], in experiment [8] and in experiment [9] was > 100 µM throughout.
On to `CC(C)(C)c1cc(/C=C/C(=O)CC(=O)/C=C/c2cc(C(C)(C)C)c(O)c(C(C)(C)C)c2)cc(C(C)(C)C)c1O`, for which the TGI in [1], in experiment [3], in [4], in [5], in [6] and in [7] was > 50 µM each time. Also, the TGI in experiment [8] and in experiment [9] was > 50 µM each time.
With `O=C(O)CN(CC(=O)O)Cc1ccn(-c2cccc(-n3ccc(CN(CC(=O)O)CC(=O)O)n3)n2)n1`, the TGI in [1], in [3], in experiment [4], in experiment [5], in experiment [10] and in experiment [6] was > 100 µM throughout. For the same molecule, the TGI in [7], in experiment [8] and in [9] was > 100 µM throughout.
Regarding `CN1CCN(/C(N)=C(\C#N)C(=O)Nc2ccccc2)CC1`, the TGI in experiment [1], in [2], in [3], in experiment [4], in experiment [5] and in experiment [10] was > 100 µM in each case. In addition, the TGI in [6], in experiment [8] and in experiment [9] was > 100 µM throughout.
On to `CCNc1cc2c3c(c1)CCCN3CCC2`, for which the TGI in [2] was determined as 28.3 µM; in experiment [3] it was 19.1 µM; in experiment [4], 41 µM; in experiment [5], 40.5 µM; in [10], 44.4 µM; in experiment [6], 28.4 µM. Moreover, the TGI stood at 35 µM in [7], 45.1 µM in experiment [8] and 35.9 µM in experiment [9].
For `COc1cc2c(cc1OC(=O)c1cc3ccccc3[nH]1)N=C[C@@H]1CCCN1C2=O`, the TGI in experiment [1] was 5.37 µM; in [2], 2.83 µM; in experiment [3], 0.818 µM; in [4] it was 0.707 µM; in [5], 1.17 µM; in experiment [10], > 100 µM. For the same molecule, the values for the TGI in [6], in [8] and in experiment [9] were 4.36 µM, 0.59 µM and 12 µM, respectively.
As to `CC(C)(C)OC(=O)N1Cc2cc(O)ccc2C[C@H]1C(=O)O`, the TGI in experiment [2], in [3], in [4], in experiment [5], in [10] and in experiment [6] was > 100 µM throughout. Also, the TGI in [7], in experiment [8] and in experiment [9] was > 100 µM in each case.
Consider `CO[C@H]1C[C@H](n2cc(C)c(=O)[nH]c2=O)O[C@@H]1CO`, for which the TGI in experiment [1], in experiment [2], in experiment [3], in [4], in experiment [5] and in experiment [6] was > 100 µM throughout. For the same molecule, the TGI in experiment [7], in experiment [8] and in experiment [9] was > 100 µM throughout.
Take `C=C1C(=O)O[C@@H]2OC3(C)CCC4C(C)CCC1C42OO3` (stereo partly specified): the GI50 in experiment [2] is 2.32 µM; in experiment [3] it was 7.42 µM; in experiment [5] it was 3.07 µM; in experiment [10], 2.54 µM; in experiment [7] it was 1.18 µM; in experiment [8] it was 24.5 µM. Besides, the GI50 in [9] was 7.23 µM. Further, the TGI is 6.76 µM and 18.1 µM in experiment [2]; 19.6 µM and 10 µM in experiment [3]; 6.86 µM and 5.17 µM in experiment [4]; 11.7 µM and 6.62 µM in [5]; 6.5 µM and 4.48 µM in experiment [10]; 36.7 µM in experiment [6]. The TGI is 3.55 µM and 2 µM in experiment [7]; 39.7 µM and 29.3 µM in experiment [8]; 23.1 µM and 18.7 µM in experiment [9].
As for `COc1cc2cc3c4c(cc(OC)c(OC)c4c2cc1OC)CCN3C(=O)N(C)C`, the TGI in [2], in experiment [3], in experiment [4], in [5], in experiment [10] and in [6] was > 100 µM in each case. Also, the TGI in experiment [7], in [8] and in [9] was > 100 µM throughout.
As to `O=C(Cc1ccccc1)N=Nc1c(O)[nH]c2ccccc12`, the TGI in experiment [1], in experiment [2], in [3], in experiment [4], in [5] and in experiment [6] was > 100 µM each time. Besides, the TGI in experiment [8] and in [9] was > 100 µM throughout.
Turning to `NC(=O)c1ncn2c(=O)n(CCl)nnc12`, the TGI in experiment [1], in experiment [2], in experiment [3], in experiment [4], in experiment [5] and in experiment [10] was > 100 µM each time. Further, the TGI in experiment [6], in [8] and in experiment [9] was > 100 µM each time.
`COc1cc(/C=C2\N=C(C)N(n3c(-c4ccccc4)nc4ccccc4c3=O)C2=O)cc(OC)c1OC`: the TGI in experiment [1], in [2], in [4], in experiment [5], in experiment [6] and in experiment [7] was > 100 µM throughout. Further, the TGI in experiment [9] is > 100 µM.
With `C=CC[C@@H]1C=C[C@@H](C(=O)OC)n2c(=O)n(-c3ccccc3)c(=O)n21`, the TGI in [1], in experiment [2], in experiment [3], in experiment [4], in experiment [5] and in experiment [10] was > 100 µM throughout. The TGI in experiment [6] and in [8] was > 100 µM throughout.
Take `Cn1c(N=[N+]=[N-])cc(=O)n(C)c1=O`: the TGI in experiment [1], in experiment [2], in experiment [3], in [4], in experiment [5] and in experiment [10] was > 100 µM throughout. The TGI in experiment [6], in [8] and in [9] was > 100 µM in each case.
As for `CCOC(=O)C1C[C@H]2CO[C@H](c3ccccc3)N2C1=O` (stereo partly specified), the TGI in [1], in [2], in [3], in [4], in experiment [5] and in experiment [10] was > 100 µM each time. In addition, the TGI in experiment [8] and in experiment [9] was > 100 µM in each case.
Take `C=CC[N+](CCO)(CCO)CCCCCCCCCCCCCCCCCC`: the TGI amounted to 18.2 µM in [2]; 27.1 µM in experiment [3]; 20.2 µM in experiment [4]; 13.1 µM in [5]; 3.91 µM in [10]; 27.3 µM in experiment [6]. In addition, the TGI in experiment [7] worked out at 2.51 µM; in experiment [8] it was 31.5 µM; in [9] it was 35 µM.
For `O=S(=O)(O)c1cc(Nc2ccnc3ccccc23)c2c(S(=O)(=O)O)cc(S(=O)(=O)O)cc2c1`, the TGI in experiment [1], in experiment [3], in [4], in experiment [5], in [6] and in experiment [8] was > 100 µM each time. Also, in [9], the TGI was > 100 µM.
Regarding `N#CCOc1cccc(C2(N3CC=CCC3)CCCCC2)c1`, the TGI in experiment [1], in [2], in experiment [3], in [4], in experiment [5] and in [6] was > 100 µM in each case. The TGI in experiment [7], in experiment [8] and in experiment [9] was > 100 µM throughout.
For the molecule `CCC/C(Cl)=N\OC(=O)Nc1ccc(F)c([N+](=O)[O-])c1`, the TGI in experiment [1] was 22.4 µM; in [2], > 100 µM; in experiment [3], 28.9 µM; in experiment [4], 37.7 µM; in [5], 42.9 µM; in experiment [10], 31.7 µM. Further, the TGI amounted to 34.9 µM in [6], 44.4 µM in experiment [8] and 66.4 µM in [9].
Consider `Cc1ccc(S(=O)(=O)C2c3nc4ccccc4cc3-c3nc4ccccc4nc32)cc1` (stereo unspecified), for which the TGI in experiment [2], in experiment [3], in experiment [4], in experiment [5], in [10] and in experiment [6] was > 100 µM each time. The TGI in [7], in [8] and in [9] was > 100 µM each time.
Turning to `CCOC(=O)c1nc2cc(C(F)(F)F)ccc2nc1Nc1ccc(F)cc1`, the TGI in experiment [1] was > 100 µM; in experiment [2], 39.9 µM; in experiment [3] it was > 100 µM; in [4], > 100 µM; in [5], 55.9 µM; in experiment [10], 49.6 µM. Moreover, the TGI in [6], in experiment [8] and in experiment [9] was > 100 µM in each case.
On to `COc1ccc2c(c1)CC1(O)COc3cc(OC)ccc3C1O2` (stereo unspecified), for which the TGI in [1], in [3], in experiment [4], in [5], in experiment [10] and in experiment [6] was > 100 µM in each case. Besides, the TGI in [8] and in experiment [9] was > 100 µM in each case.
For the molecule `COC(=O)c1c(O)ccc2c1c1c(n2Cc2ccccc2OC)C(=O)c2ccccc2C1`, the TGI in [1], in experiment [2], in experiment [3], in experiment [4], in experiment [5] and in experiment [6] was > 100 µM each time. Further, the TGI in experiment [7] and in experiment [9] was > 100 µM each time.
`CCOC(=O)C1=CC(C)(C(=O)OCC)Nc2c(nc(SC)n(C)c2=O)N1` (stereo unspecified): the TGI in experiment [1], in experiment [2], in experiment [3], in experiment [5], in experiment [10] and in experiment [6] was > 10 µM throughout. For the same molecule, the TGI in [8] and in experiment [9] was > 10 µM in each case.
On to `Cn1cc(-c2nc(-c3c[nH]c4ccncc34)cs2)c2cc(F)ccc21`, for which the GI50 in experiment [1] was 1.8 µM; in experiment [3], 1.94 µM; in experiment [4], 1.71 µM; in experiment [5], 1.68 µM; in experiment [10], 1.65 µM; in [6] it was 1.73 µM. For the same molecule, the GI50 in experiment [8] was 1.68 µM; in experiment [9], 1.85 µM. For the same molecule, the TGI in [1] turned out to be 3.4 µM; in experiment [3], 3.69 µM; in [4], 3.18 µM; in [5], 3.1 µM; in experiment [10], 3.42 µM; in experiment [6] it was 3.3 µM. In addition, the TGI in experiment [8] worked out at 3.11 µM; in experiment [9], 3.57 µM.
Consider `COc1ccc(/C=N\NC(=O)Nc2cccc3ccccc23)cc1`, for which the TGI in experiment [1] was > 100 µM; in experiment [5] it was 33.3 µM; in experiment [10], 42.1 µM; in experiment [6], 26.5 µM; in experiment [8], > 100 µM; in experiment [9] it was > 100 µM.
As to `COc1nc2ccc(CNc3ccc(C(=O)O)cc3)cc2nc1OC`, the TGI in experiment [1], in experiment [2], in experiment [3], in experiment [4], in experiment [5] and in [6] was > 10 µM throughout. Also, the TGI in experiment [7], in experiment [8] and in experiment [9] was > 10 µM throughout.
In the case of `S=c1nc2sc3c(c2c(Nc2ccc(Br)cc2)[nH]1)CCN(N1CCc2c(sc4nc(=S)[nH]c(Nc5ccc(Br)cc5)c24)C1)C3`, the TGI in experiment [1], in experiment [2], in experiment [3], in experiment [4], in [5] and in experiment [6] was > 50 µM each time. The TGI in [7], in experiment [8] and in experiment [9] was > 50 µM each time.
